The values that follow come from patent publication US10912712B2, “Treatment of bleeding by non-invasive stimulation” (The Feinstein Institutes for Medical Research, priority 2004, dated 2021).

The structures appear in SMILES notation. Entries after “also recorded” stand apart in the source; their conditions may differ.

In test [1] the test system is Male Balb/c Mice. Kind of test: Bleed time after tail amputation in mice, GTS-21 (Example 10). It counts as in vivo. The conditions noted are these: GTS-21 4 mg/kg IP vs PBS, 1 hour before, anesthetized, 2 mm of tail amputated. How it is done:
Male Balb/c mice (around 25 g) were injected (intraperitoneally (IP)) with cholinergic agonist GTS-21 (4 mg/kg in 125 µL PBS) or PBS (vehicle control, 125 µL). 1 hour later, mice were anesthetized with ketamine/xylazine (100 mg/kg/10 mg/kg, intraperitoneally).

Test [2] concerns Male Balb/c Mice. Kind of test: Effect of alpha-7 antagonist MLA given before nicotine on bleed time (Example 13). It counts as in vivo. How it is done: Male Balb/c mice (around 25 g) were divided into three groups: A, B and C. Groups A and C were injected with the alpha-7 antagonist methyllycaconitine, (MLA; 4 mg/kg, IP, in 200 µL PBS), group B was injected with PBS (vehicle control, 125 µ1). 15 minutes later, Group A was injected with PBS (vehicle control, 125 µl) and groups B and C were injected with nicotine (0.3 mg/kg in 125 µL PBS). 30 minutes later, mice were anesthetized (ketamine [100 mg/kg, IP] and xylazine [10 mg/kg, IP]). After immersing tails in 37° C. saline for 5 minutes to normalize vasodilatory state, 2 mm of tail was amputated with a scalpel, and returned to the saline bath (modified from Nagashima et al., Journal of Clinical Investigation (109) 101-110, (2002); Snyder et al., Nature Medicine (5), 64-70, (1999).
Once bleeding stopped, animals were euthanized by CO2 asphyxiation. Data were recorded in seconds, and are presented as mean+/− SE. Student's t-test was used for statistical analysis.

For `COc1ccc(/C=C2\CCCN=C2c2cccnc2)c(OC)c1` [GTS-21], in test [1], the total bleeding time result is “significantly reduced the bleed time; also recorded: decrease in bleed time”.
On to `CCN1C[C@]2(COC(=O)c3ccccc3N3C(=O)C[C@H](C)C3=O)CC[C@H](OC)[C@@]34[C@@H]5C[C@H]6[C@H](OC)[C@@H]5[C@](O)(C[C@@H]6OC)[C@@](O)([C@@H](OC)[C@H]23)[C@@H]14` [MLA, methyllycaconitine], for which the “effect on nicotine induced reduction of bleed time” value in test [2] (MLA 4 mg/kg IP 15 minutes before nicotine 0.3 mg/kg) is given as “inhibited nicotine induced reduction of bleed time”.
With `CN1CCCC1c1cccnc1` (stereo not drawn) [nicotine], in test [2] (nicotine 0.3 mg/kg after PBS pretreatment, 30 minutes later anesthetized, 2 mm of tail amputated), the total bleeding time entry is reported as “reduction in bleed time”.
